This is an account of results in patent publication US4044134A, “Fused pyrimidin-4(3H)-ones as antiallergy agents” (Pfizer Inc., priority 1976, dated 1977).

For data set [1], the system named is passive cutaneous anaphylaxis (PCA) reaction. The data set is described as follows: passive cutaneous anaphylaxis (PCA) test, i.v. or oral administration. Format: in vivo, male Charles River Wistar rats.
Data set [2] concerns PCA reaction. Briefly: PCA reaction test after aerosol administration (nebulizer). Format: in vivo, rats.
Data set [3] in a line: hypotension and bradycardia in dogs. Format: in vivo.
The nature of data set [4]: intravenous toxicity in mice.
Data set [5] deals with bronchi. The settings on record: in vivo; cited from earlier work.
Data set [6] deals with bronchial asthma. The settings on record: in vivo; cited from earlier work.
[7] abbreviates: Rattus norvegicus, iv, I.V., read-out: degree (%) of protection, PCA test.
Setting [8] is: Rattus norvegicus, Oral, read-out: degree (%) of protection, PCA test.

Where two headings read alike, the source gives them in different places.

On to `CCOC(=O)c1nc2nc3cc(OC)c(OC)cc3cc2c(=O)[nH]1` [COOC2 H5/H/H/OCH3/OCH3/H, Ethyl 7,8-dimethoxypyrimido[4,5-b]quinolin-4(3H)-one-2-carboxylate], for which the inhibition in vivo at 0.003 mg/kg in data set [1] (Rattus norvegicus, iv, I.V., 0.003 mg/kg, read-out: degree (%) of protection, PCA test) is 36%. Further, the inhibition in vivo at 0.01 mg/kg in data set [1] (Rattus norvegicus, iv, I.V., 0.01 mg/kg, read-out: degree (%) of protection, PCA test) is 70%. Moreover, in data set [1] (Rattus norvegicus, iv, I.V., 0.03 mg/kg, read-out: degree (%) of protection, PCA test), the inhibition in vivo at 0.03 mg/kg was 75%. Further, in data set [1] (setting [7]), the inhibition in vivo at 0.1 mg/kg was found to be 90%, the inhibition in vivo at 0.3 mg/kg is 90% and the inhibition in vivo at 1 mg/kg was found to be 100%. Further, the minimal effective dose in data set [1] (Rattus norvegicus, iv, read-out: intravenously active at a level as low as) is 0.003 mg/kg. For the same molecule, in data set [1] (Rattus norvegicus, Oral, 0.03 mg/kg (so in the source), read-out: degree (%) of protection, PCA test), the inhibition in vivo at 0.03 mg/kg came out at 30%. In data set [1] (setting [8]), the inhibition in vivo at 1 mg/kg is 51%, the inhibition in vivo at 3 mg/kg is 75% and the inhibition in vivo at 10 mg/kg amounted to 80%. The “routes of administration by which active” value in data set [1] (rat, in vivo) was “active via the oral, intravenous, intraperitoneal and inhalation routes of administration”. Further, the “concentration of solutions giving concentration related responses by aerosol” value in data set [2] lay within 0.3 to 30 mg/mL. Also, the hypotension and bradycardia entry in data set [3] was “marked but transient hypotension and bradycardia”. Also, in data set [4] (intravenous, mice), the “intravenous dose that did not cause death in mice” value is 1000 mg/kg. The “toxicity” value in data set [4] (mouse, in vivo) is on record as “relatively free of toxicity”.

For `O=C(O)c1cc(=O)c2c(OCC(O)COc3cccc4oc(C(=O)O)cc(=O)c34)cccc2o1` [Disodium chromoglycate, 1,3-bis-(2-carboxychromon-5-yloxy)-2-hydroxypropane, reference compound], in data set [1] (setting [7]), the inhibition in vivo at 0.1 mg/kg stood at 19%, the inhibition in vivo at 0.3 mg/kg is 29%, the inhibition in vivo at 1 mg/kg amounted to 56% and the inhibition in vivo at 3 mg/kg is 78%. Moreover, in data set [1] (setting [7]), the inhibition in vivo at 10 mg/kg stood at 89% and the inhibition in vivo at 100 mg/kg was found to be 100%. The inhibition in vivo at 30 mg/kg in data set [1] (Rattus norvegicus, iv, I.V., 30 mg/kg, read-out: degree (%) of protection, PCA test) was 99%. Moreover, the inhibition in vivo at 100 mg/kg in data set [1] (setting [8]) stood at 0%. Moreover, in data set [5], the “bronchodilator activity” value was “not a bronchodilator”. Besides, the “efficacy by route of administration” value in data set [6] is recorded as “lack of oral efficacy”.
